Measured values reported in patent US20260285850A1, “SUBSTITUTED OXAZOLIDINONES AND IMIDAZOLINONES AS HERBICIDES” (FMC CORPORATION, priority 2023, published 2026).

Experiments:
Format in all cases: in vivo
[1] = tested on: barnyardgrass (Echinochloa crus-galli); assay: Test A preemergence soil spray, visual injury rating 0-100; details: 10 days
How it was run: (§1)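 Compounds formulated in a non-phytotoxic solvent with surfactant are sprayed onto soil of freshly planted loam-sand pots ahead of emergence, or onto emerged plants 2-10 cm tall. After a 10-day greenhouse period, each species is scored visually for injury against untreated controls.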

[2] = tested on: blackgrass (Alopecurus myosuroides); assay: as above; details: 10 days
How it was run: as §1

corn (Zea mays) [3] = assay: as above; details: 10 days
How it was run: as §1

[4] = tested on: green foxtail (Setaria viridis); assay: as above; details: 10 days
How it was run: as §1

kochia (Bassia scoparia) [5] = assay: as above; details: 10 days
How it was run: as §1

[6] = tested on: oat, wild (wild oat, Avena fatua); assay: as above; details: 10 days
How it was run: as §1

[7] = tested on: ragweed (common ragweed, Ambrosia artemisiifolia); assay: as above; details: 10 days
How it was run: as §1

[8] = tested on: ryegrass, Italian (italian ryegrass, Lolium multiflorum); assay: as above; details: 10 days
How it was run: as §1

soybean (Glycine max) [9] = assay: as above; details: 10 days
How it was run: as §1

[10] = tested on: wheat (Triticum aestivum); assay: as above; details: 10 days
How it was run: as §1

[11] = tested on: barnyardgrass (Echinochloa crus-galli); assay: Test A postemergence application, visual injury rating 0-100
How it was run: as §1

[12] = tested on: blackgrass (Alopecurus myosuroides); assay: as above
How it was run: as §1

corn (Zea mays) [13] = assay: as above
How it was run: as §1

[14] = tested on: galium (catchweed bedstraw, Galium aparine); assay: as above
How it was run: as §1

[15] = tested on: green foxtail (Setaria viridis); assay: as above
How it was run: as §1

[16] = tested on: horseweed (Erigeron canadensis); assay: as above
How it was run: as §1

kochia (Bassia scoparia) [17] = assay: as above
How it was run: as §1

[18] = tested on: oat, wild (wild oat, Avena fatua); assay: as above
How it was run: as §1

[19] = tested on: palmer (palmer amaranth, palmer pigweed, Amaranthus palmeri); assay: as above
How it was run: as §1

[20] = tested on: ragweed (common ragweed, Ambrosia artemisiifolia); assay: as above
How it was run: as §1

[21] = tested on: ryegrass, Italian (italian ryegrass, Lolium multiflorum); assay: as above
How it was run: as §1

soybean (Glycine max) [22] = assay: as above
How it was run: as §1

[23] = tested on: wheat (Triticum aestivum); assay: as above
How it was run: as §1

[24] = tested on: barnyardgrass (Echinochloa crusgalli); assay: Test B flooded paddy test, visual plant response rating 0-100; details: 250 g ai/ha, Flood, applied to paddy water, evaluated after 13 days
How it was run: (§2)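 2-leaf plants; flood 3 cm over soil; compound dosed into paddy water; depth kept constant; greenhouse 13 d; visual scoring vs controls. Dash = no result.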

[25] = tested on: ducksalad (Heteranthera limosa); assay: as above; details: 250 g ai/ha, Flood, applied to paddy water, evaluated after 13 days
How it was run: as §2

rice (Oryza sativa) = assay: as above; details: 250 g ai/ha, Flood, applied to paddy water, evaluated after 13 days
How it was run: as §2

[26] = tested on: sedge, umbrella (small-flower umbrella sedge, Cyperus difformis); assay: as above; details: 250 g ai/ha, Flood, applied to paddy water, evaluated after 13 days
How it was run: as §2

[27] = 62 g ai/ha, 0 = no effect, 100 = complete control
[28] = 62 g ai/ha, postemergence, 10 days, 0 = no effect, 100 = complete control
[29] = Postemergence, 16 g ai/ha, greenhouse 10 days, 0 no effect, 100 complete control

CCOC(=O)C1=CCC(NC(=O)C2(C)CN(c3cc(F)cc(Cl)c3)C(=O)O2)C1 (centres unmarked) [Compound 134]
0: Barnyardgrass plant response rating ([1]; 16 g ai/ha, 0 to 100 scale) | Barnyardgrass plant response rating (0-100) [1, 27] | Blackgrass plant response rating ([2]; 16 g ai/ha, 0 to 100 scale) | Corn plant response rating (corn (Zea mays) [3]; 16 g ai/ha, 0 to 100 scale) | Corn plant response rating (0-100) (corn (Zea mays) [3]; [27]) | Foxtail, Green plant response rating ([4]; 16 g ai/ha, 0 to 100 scale) | Foxtail, Green plant response rating (0-100) [4, 27] | Kochia plant response rating (kochia (Bassia scoparia) [5]; 16 g ai/ha, 0 to 100 scale) | Kochia plant response rating (0-100) (kochia (Bassia scoparia) [5]; [27]) | Oat, Wild plant response rating ([6]; 16 g ai/ha, 0 to 100 scale) | Oat, Wild plant response rating (0-100) [6, 27] | Ragweed plant response rating ([7]; 16 g ai/ha, 0 to 100 scale) | Ragweed plant response rating (0-100) [7, 27] | Ryegrass, Italian plant response rating ([8]; 16 g ai/ha, 0 to 100 scale) | Ryegrass, Italian plant response rating (0-100) [8, 27] | Soybean plant response rating (soybean (Glycine max) [9]; 16 g ai/ha, 0 to 100 scale) | Soybean plant response rating (0-100) (soybean (Glycine max) [9]; [27]) | Wheat plant response rating ([10]; 16 g ai/ha, 0 to 100 scale) | Wheat plant response rating (0-100) [10, 27] | Barnyardgrass plant response rating (0-100) [11, 28] | Barnyardgrass plant response rating (0 to 100 scale) [11, 29] | Blackgrass plant response rating (0-100) [12, 28] | Blackgrass plant response rating (0 to 100 scale) [12, 29] | Corn plant response rating (0-100) (corn (Zea mays) [13]; [28]) | Corn plant response rating (0 to 100 scale) (corn (Zea mays) [13]; [29]) | Galium plant response rating (0-100) [14, 28] | Galium plant response rating (0 to 100 scale) [14, 29] | Foxtail, Green plant response rating (0-100) [15, 28] | Foxtail, Green plant response rating (0 to 100 scale) [15, 29] | Horseweed plant response rating (0-100) [16, 28] | Horseweed plant response rating (0 to 100 scale) [16, 29] | Kochia plant response rating (0-100) (kochia (Bassia scoparia) [17]; [28]) | Kochia plant response rating (0 to 100 scale) (kochia (Bassia scoparia) [17]; [29]) | Oat, Wild plant response rating (0-100) [18, 28] | Oat, Wild plant response rating (0 to 100 scale) [18, 29] | Pigweed, Palmer plant response rating (0-100) [19, 28] | Pigweed, Palmer plant response rating (0 to 100 scale) [19, 29] | Ragweed plant response rating (0-100) [20, 28] | Ragweed plant response rating (0 to 100 scale) [20, 29] | Ryegrass, Italian plant response rating (0-100) [21, 28] | Ryegrass, Italian plant response rating (0 to 100 scale) [21, 29] | Soybean plant response rating (0-100) (soybean (Glycine max) [22]; [28]) | Soybean plant response rating (0 to 100 scale) (soybean (Glycine max) [22]; [29]) | Wheat plant response rating (0-100) [23, 28] | Wheat plant response rating (0 to 100 scale) [23, 29] | Plant response rating, Barnyardgrass (0 to 100 scale, 0 is no effect and 100 is complete control) [24] | Plant response rating, Ducksalad (0 to 100 scale, 0 is no effect and 100 is complete control) [25] | Plant response rating, Rice (0 to 100 scale, 0 is no effect and 100 is complete control) (rice (Oryza sativa)) | Plant response rating, Sedge, Umbrella (0 to 100 scale, 0 is no effect and 100 is complete control) [26]
30: Blackgrass plant response rating (0-100) [2, 27]
